Measured values taken from the NIST ThermoML archive (doi:10.1021/je400122k).

Details: Liquid; for speed of sound: Pulse-echo method; for mass density: Vibrating tube method

CCCCCCCCCCCCCC(=O)OCC [ethyl tetradecanoate]
Details | mass density [kg/m3] | speed of sound [m/s]
293.15 K, 100 kPa | – | 1360.6
293.15 K, 101.3 kPa | 861 | –
293.15 K, 10000 kPa | 867.5 | 1408
293.15 K, 20000 kPa | 873.2 | 1453.3
293.15 K, 30000 kPa | 878.7 | 1494.5
293.15 K, 40000 kPa | 883.8 | 1533.5
293.15 K, 50000 kPa | 888.7 | 1568.2
293.15 K, 60000 kPa | 893.6 | –
303.15 K, 100 kPa | – | 1321.8
303.15 K, 101.3 kPa | 853.3 | –
303.15 K, 10000 kPa | 860.2 | 1370.9
303.15 K, 20000 kPa | 866.2 | 1416.8
303.15 K, 30000 kPa | 871.9 | 1460.6
303.15 K, 40000 kPa | 877.3 | 1500.8
303.15 K, 50000 kPa | 882.2 | 1539.9
303.15 K, 60000 kPa | 887 | –
303.15 K, 70000 kPa | 891.7 | –
303.15 K, 80000 kPa | 896 | –
303.15 K, 90000 kPa | 900.3 | –
303.15 K, 100000 kPa | 904.4 | –
313.15 K, 101.3 kPa | 845.6 | –
313.15 K, 10000 kPa | 852.7 | –
313.15 K, 20000 kPa | 859 | –
313.15 K, 30000 kPa | 864.9 | –
313.15 K, 40000 kPa | 870.5 | –
313.15 K, 50000 kPa | 875.7 | –
313.15 K, 60000 kPa | 880.8 | –
313.15 K, 70000 kPa | 885.5 | –
313.15 K, 80000 kPa | 890.8 | –
313.15 K, 90000 kPa | 894.9 | –
313.15 K, 100000 kPa | 899.1 | –
323.15 K, 100 kPa | – | 1251.8
323.15 K, 101.3 kPa | 838.5 | –
323.15 K, 10000 kPa | 845.4 | 1304.5
323.15 K, 20000 kPa | 852 | 1353.4
323.15 K, 30000 kPa | 858.2 | 1398.6
323.15 K, 40000 kPa | 863.9 | 1441.1
323.15 K, 50000 kPa | 869.2 | 1482.4
323.15 K, 60000 kPa | 874.7 | 1519.7
323.15 K, 70000 kPa | 879.8 | 1555.8
323.15 K, 80000 kPa | 884.5 | 1590.8
323.15 K, 90000 kPa | 888.9 | 1624.6
323.15 K, 100000 kPa | 893.1 | 1655.7
333.15 K, 101.3 kPa | 830.6 | –
333.15 K, 10000 kPa | 838 | –
333.15 K, 20000 kPa | 844.9 | –
333.15 K, 30000 kPa | 851.3 | –
333.15 K, 40000 kPa | 857.2 | –
333.15 K, 50000 kPa | 862.9 | –
333.15 K, 60000 kPa | 868.2 | –
333.15 K, 70000 kPa | 874 | –
333.15 K, 80000 kPa | 878 | –
333.15 K, 90000 kPa | 883.4 | –
333.15 K, 100000 kPa | 888 | –
343.15 K, 100 kPa | – | 1184.7
343.15 K, 101.3 kPa | 823.2 | –
343.15 K, 10000 kPa | 831.1 | 1241.3
343.15 K, 20000 kPa | 838.6 | 1293
343.15 K, 30000 kPa | 845.2 | 1341.9
343.15 K, 40000 kPa | 851.3 | 1386.7
343.15 K, 50000 kPa | 857.1 | 1428.8
343.15 K, 60000 kPa | 862.5 | 1468.1
343.15 K, 70000 kPa | 867.7 | 1506.4
343.15 K, 80000 kPa | 872.8 | 1541.9
343.15 K, 90000 kPa | 877.5 | 1576.2
343.15 K, 100000 kPa | 882.1 | 1609.1
353.15 K, 101.3 kPa | 815.6 | –
353.15 K, 10000 kPa | 823.9 | –
353.15 K, 20000 kPa | 831.8 | –
353.15 K, 30000 kPa | 838.7 | –
353.15 K, 40000 kPa | 845 | –
353.15 K, 50000 kPa | 850.8 | –
353.15 K, 60000 kPa | 856.4 | –
353.15 K, 70000 kPa | 861.8 | –
353.15 K, 80000 kPa | 866.9 | –
353.15 K, 90000 kPa | 871.8 | –
353.15 K, 100000 kPa | 876.4 | –
363.15 K, 100 kPa | – | 1120
363.15 K, 101.3 kPa | 808.4 | –
363.15 K, 10000 kPa | 816.6 | 1181.8
363.15 K, 20000 kPa | 824.6 | 1236.4
363.15 K, 30000 kPa | 831.8 | 1287.1
363.15 K, 40000 kPa | 838.6 | 1334.2
363.15 K, 50000 kPa | 845 | 1377.5
363.15 K, 60000 kPa | 850.6 | 1418.8
363.15 K, 70000 kPa | 856.1 | 1457.6
363.15 K, 80000 kPa | 861.3 | 1495.5
363.15 K, 90000 kPa | 866.3 | 1531
363.15 K, 100000 kPa | 871.1 | 1564.6
373.15 K, 101.3 kPa | 800.1 | –
373.15 K, 10000 kPa | 809.9 | –
373.15 K, 20000 kPa | 817.9 | –
373.15 K, 30000 kPa | 825.5 | –
373.15 K, 40000 kPa | 832.4 | –
373.15 K, 50000 kPa | 838.8 | –
373.15 K, 60000 kPa | 844.9 | –
373.15 K, 70000 kPa | 850.6 | –
373.15 K, 80000 kPa | 856.2 | –
373.15 K, 90000 kPa | 861.3 | –
373.15 K, 100000 kPa | 866.1 | –
383.15 K, 100 kPa | – | 1056.9
383.15 K, 101.3 kPa | 792.1 | –
383.15 K, 10000 kPa | 802.1 | 1122.3
383.15 K, 20000 kPa | 810.7 | 1181.7
383.15 K, 30000 kPa | 818.5 | 1235.6
383.15 K, 40000 kPa | 825.9 | 1284.7
383.15 K, 50000 kPa | 832.5 | 1330.3
383.15 K, 60000 kPa | 838.9 | 1372.3
383.15 K, 70000 kPa | 845 | 1412.6
383.15 K, 80000 kPa | 850.5 | 1450.4
383.15 K, 90000 kPa | 855.9 | 1486.9
383.15 K, 100000 kPa | 861 | 1521.7
393.15 K, 101.3 kPa | 784.5 | –
393.15 K, 10000 kPa | 794.6 | –
393.15 K, 20000 kPa | 803.7 | –
393.15 K, 30000 kPa | 812 | –
393.15 K, 40000 kPa | 819.5 | –
393.15 K, 50000 kPa | 826.4 | –
393.15 K, 60000 kPa | 832.9 | –
393.15 K, 70000 kPa | 839.8 | –
393.15 K, 80000 kPa | 845.6 | –
393.15 K, 90000 kPa | 851 | –
393.15 K, 100000 kPa | 855.6 | –
403.15 K, 100 kPa | – | 996.1
403.15 K, 10000 kPa | – | 1067.2
403.15 K, 20000 kPa | – | 1130.3
403.15 K, 30000 kPa | – | 1186.1
403.15 K, 40000 kPa | – | 1237.3
403.15 K, 50000 kPa | – | 1284.9
403.15 K, 60000 kPa | – | 1327.9
403.15 K, 70000 kPa | – | 1370
403.15 K, 80000 kPa | – | 1409.7
403.15 K, 90000 kPa | – | 1447.5
403.15 K, 100000 kPa | – | 1483.2
